Laboratory results reported in ChEMBL document CHEMBL1201862, “PubChem BioAssay data set” (2004).
Calls of active or inactive are those of the source.

How the values were obtained:
[1] = target: T1, Sentrin-specific protease 8 (Homo sapiens, UniProt Q96LD8); assay type: functional;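 note: luminescence read-out of SENP8 inhibition, dose-response confirmation following an ultra-high-throughput screen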
T1 sequence (Q96LD8 whole entry): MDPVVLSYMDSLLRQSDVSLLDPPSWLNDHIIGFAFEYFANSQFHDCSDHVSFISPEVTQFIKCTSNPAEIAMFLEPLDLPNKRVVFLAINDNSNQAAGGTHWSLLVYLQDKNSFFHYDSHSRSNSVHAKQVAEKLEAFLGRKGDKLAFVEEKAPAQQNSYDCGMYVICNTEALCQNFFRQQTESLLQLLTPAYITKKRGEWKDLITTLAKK

CHO-K1 = assay: (§1) Counterscreen for antagonists of the orexin 1 receptor (OX1R; HCRTR1): Homogeneous time resolved fluorescence (HTRF)-based cell-based dose response assay to identify antagonists of the parental CHO-K1 cell line. [Related pubchem assays (depositor defined):AID434989, AID435008, AID463079, AID485270, AID492963, AID492964, AID492965, AID493232, AID504699, AID504701]; assay type: functional; details: Cricetulus griseus
[2] = target: T2, Orexin/Hypocretin receptor type 1 (Homo sapiens, UniProt O43613); assay: (§2) Fluorescence-based cell-based high throughput dose response assay for antagonists of the orexin 1 receptor (OX1R; HCRTR1). [Related pubchem assays (depositor defined):AID434989, AID435008, AID463079, AID485270, AID492963, AID492964, AID492965, AID493232, AID504717, AID504718]; assay type: functional
[3] = target: T3, Sentrin-specific protease 7 (Homo sapiens, UniProt Q9BQF6); assay type: functional;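 note: Luminescence-based dose-response confirmation of ultra-high-throughput screening hits, measuring inhibition of SENP7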
T3 sequence (Q9BQF6 whole entry): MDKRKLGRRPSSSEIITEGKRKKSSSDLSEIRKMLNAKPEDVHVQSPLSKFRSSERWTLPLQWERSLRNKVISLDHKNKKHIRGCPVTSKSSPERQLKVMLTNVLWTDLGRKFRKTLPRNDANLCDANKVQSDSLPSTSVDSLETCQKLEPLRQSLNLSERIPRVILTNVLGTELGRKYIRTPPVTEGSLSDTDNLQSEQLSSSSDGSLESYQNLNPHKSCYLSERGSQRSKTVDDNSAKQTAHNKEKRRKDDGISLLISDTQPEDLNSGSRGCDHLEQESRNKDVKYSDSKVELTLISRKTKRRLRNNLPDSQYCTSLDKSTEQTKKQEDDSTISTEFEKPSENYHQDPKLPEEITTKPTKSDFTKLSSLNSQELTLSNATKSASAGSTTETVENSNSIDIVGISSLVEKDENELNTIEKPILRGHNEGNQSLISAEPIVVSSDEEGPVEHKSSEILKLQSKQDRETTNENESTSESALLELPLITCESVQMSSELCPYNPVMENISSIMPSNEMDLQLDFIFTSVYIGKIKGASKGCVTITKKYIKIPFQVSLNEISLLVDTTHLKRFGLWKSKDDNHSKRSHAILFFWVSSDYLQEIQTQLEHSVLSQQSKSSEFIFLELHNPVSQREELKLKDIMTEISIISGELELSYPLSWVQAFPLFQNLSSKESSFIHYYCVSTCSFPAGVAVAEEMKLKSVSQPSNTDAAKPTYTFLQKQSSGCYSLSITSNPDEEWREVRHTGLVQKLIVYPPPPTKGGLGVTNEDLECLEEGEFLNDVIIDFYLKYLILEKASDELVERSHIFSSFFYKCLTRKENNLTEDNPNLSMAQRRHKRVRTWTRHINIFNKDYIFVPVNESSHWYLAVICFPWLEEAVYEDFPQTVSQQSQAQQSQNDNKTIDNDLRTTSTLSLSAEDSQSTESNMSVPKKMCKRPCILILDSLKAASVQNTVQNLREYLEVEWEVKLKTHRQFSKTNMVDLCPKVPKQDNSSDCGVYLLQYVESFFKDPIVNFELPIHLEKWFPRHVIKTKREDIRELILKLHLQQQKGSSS

[4] = as §1, with “Fluorescence-based” for “Homogeneous time resolved fluorescence (HTRF)-based”, “cell-based high throughput” for “cell-based”, “CHO” for “CHO-K1”; assay type: functional
[5] = target: T2, Orexin/Hypocretin receptor type 1; assay: as §2, with “Homogeneous Time Resolved Fluorescence (HTRF)-based” for “Fluorescence-based”; assay type: functional
Caspase-3 = target: T4, Caspase-3 (Homo sapiens, UniProt P42574); assay type: functional;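 note: Dose-response selectivity test against caspase-3 for candidate inhibitors of sentrin-specific proteases (SENPs)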
T4 sequence (P42574 whole entry): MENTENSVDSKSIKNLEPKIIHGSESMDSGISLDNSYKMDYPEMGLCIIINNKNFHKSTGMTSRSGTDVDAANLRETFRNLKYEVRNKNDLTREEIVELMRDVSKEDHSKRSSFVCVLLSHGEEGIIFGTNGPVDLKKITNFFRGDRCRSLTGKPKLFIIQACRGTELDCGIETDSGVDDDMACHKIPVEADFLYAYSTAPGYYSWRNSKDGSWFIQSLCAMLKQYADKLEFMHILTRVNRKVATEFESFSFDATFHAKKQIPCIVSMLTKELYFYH

Orexin receptor type 2 [6] = target: T5, Orexin receptor type 2 (Homo sapiens, UniProt O43614); assay: Counterscreen assay for antagonists of the orexin 1 receptor (OX1R; HCRTR1): Homogeneous Time Resolved Fluorescence (HTRF)-based cell-based dose response assay for antagonists of the orexin 2 receptor (OX2R; HCRTR2), run by assay provider.; assay type: functional
[7] = target: T6, Sentrin-specific protease 6 (Homo sapiens, UniProt Q9GZR1); assay type: functional;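 note: Luminescence-based dose-response confirmatory assay of SENP6 inhibition, following up an ultra-high-throughput screen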
T6 sequence (Q9GZR1 whole entry): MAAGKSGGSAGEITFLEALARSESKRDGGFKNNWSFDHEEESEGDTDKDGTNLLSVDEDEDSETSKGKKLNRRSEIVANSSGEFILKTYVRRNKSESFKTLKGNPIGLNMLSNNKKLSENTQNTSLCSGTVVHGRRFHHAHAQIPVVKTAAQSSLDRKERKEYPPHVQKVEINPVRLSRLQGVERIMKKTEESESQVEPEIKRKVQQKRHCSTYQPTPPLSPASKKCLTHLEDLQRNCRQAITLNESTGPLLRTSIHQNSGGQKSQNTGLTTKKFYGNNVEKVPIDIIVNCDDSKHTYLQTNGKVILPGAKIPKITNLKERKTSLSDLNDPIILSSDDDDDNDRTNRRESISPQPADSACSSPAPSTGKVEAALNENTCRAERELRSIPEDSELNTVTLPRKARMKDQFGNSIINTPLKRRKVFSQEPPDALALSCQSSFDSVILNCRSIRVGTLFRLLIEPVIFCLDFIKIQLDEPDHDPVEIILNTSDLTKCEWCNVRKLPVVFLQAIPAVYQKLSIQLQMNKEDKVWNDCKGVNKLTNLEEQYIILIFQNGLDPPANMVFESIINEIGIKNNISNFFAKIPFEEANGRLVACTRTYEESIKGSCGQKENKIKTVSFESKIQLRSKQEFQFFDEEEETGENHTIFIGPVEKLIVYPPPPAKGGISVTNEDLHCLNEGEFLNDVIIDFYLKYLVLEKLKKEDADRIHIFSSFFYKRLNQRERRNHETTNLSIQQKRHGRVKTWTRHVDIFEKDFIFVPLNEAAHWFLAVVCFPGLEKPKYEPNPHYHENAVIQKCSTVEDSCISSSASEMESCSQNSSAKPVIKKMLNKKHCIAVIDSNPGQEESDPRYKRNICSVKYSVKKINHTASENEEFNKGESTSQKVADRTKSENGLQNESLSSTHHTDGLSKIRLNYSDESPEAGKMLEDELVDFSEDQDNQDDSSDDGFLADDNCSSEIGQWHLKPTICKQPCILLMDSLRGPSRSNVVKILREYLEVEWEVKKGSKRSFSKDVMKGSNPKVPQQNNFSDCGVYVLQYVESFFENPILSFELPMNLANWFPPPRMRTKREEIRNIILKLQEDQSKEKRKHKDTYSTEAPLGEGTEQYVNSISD

Orexin receptor type 2 [8] = target: T5, Orexin receptor type 2; assay: Counterscreen assay for antagonists of the orexin 1 receptor (OX1R; HCRTR1): Fluorescence-based cell-based dose response assay for antagonists of the orexin 2 receptor (OX2R; HCRTR2), run by assay provider.; assay type: functional
[9] = THP-1 cell cytotoxicity, dose response, cytotoxicity control, set 3 (AID 504852); assay type: functional; details: Mycobacterium tuberculosis
[10] = target: T7, High affinity choline transporter 1 (Homo sapiens, UniProt Q9GZV3); assay: human choline transporter potentiators, potency – cell-based, 10-point CRC, membrane potential dye, dose response (AID 602376); assay type: functional
T7 sequence (Q9GZV3 whole entry): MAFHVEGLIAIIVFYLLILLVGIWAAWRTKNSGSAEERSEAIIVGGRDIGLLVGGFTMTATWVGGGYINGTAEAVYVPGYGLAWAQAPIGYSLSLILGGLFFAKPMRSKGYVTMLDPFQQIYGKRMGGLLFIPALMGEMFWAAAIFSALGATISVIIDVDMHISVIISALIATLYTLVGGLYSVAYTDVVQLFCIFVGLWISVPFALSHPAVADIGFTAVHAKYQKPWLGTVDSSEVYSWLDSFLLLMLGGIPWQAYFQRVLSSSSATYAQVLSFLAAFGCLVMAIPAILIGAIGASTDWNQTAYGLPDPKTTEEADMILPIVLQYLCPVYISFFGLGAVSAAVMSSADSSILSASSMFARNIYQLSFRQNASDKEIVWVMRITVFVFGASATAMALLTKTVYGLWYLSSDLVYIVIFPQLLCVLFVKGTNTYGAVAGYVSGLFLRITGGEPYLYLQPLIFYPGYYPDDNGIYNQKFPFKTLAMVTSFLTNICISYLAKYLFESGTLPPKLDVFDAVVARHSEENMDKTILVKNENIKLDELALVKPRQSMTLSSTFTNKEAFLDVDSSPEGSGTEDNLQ

[11] = A cell-based HTS for delayed death inhibitors of the malarial parasite plastid Measured in Microorganism System Using Plate Reader - 2126-02_Inhibitor_Dose_DryPowder_Activity.; assay type: functional, organism-based
[12] = A cell-based HTS for delayed death inhibitors of the malarial parasite plastid Measured in Microorganism System Using Plate Reader - 2126-01_Inhibitor_Dose_DryPowder_Activity.; assay type: functional, organism-based

T2 sequence (O43613 whole entry): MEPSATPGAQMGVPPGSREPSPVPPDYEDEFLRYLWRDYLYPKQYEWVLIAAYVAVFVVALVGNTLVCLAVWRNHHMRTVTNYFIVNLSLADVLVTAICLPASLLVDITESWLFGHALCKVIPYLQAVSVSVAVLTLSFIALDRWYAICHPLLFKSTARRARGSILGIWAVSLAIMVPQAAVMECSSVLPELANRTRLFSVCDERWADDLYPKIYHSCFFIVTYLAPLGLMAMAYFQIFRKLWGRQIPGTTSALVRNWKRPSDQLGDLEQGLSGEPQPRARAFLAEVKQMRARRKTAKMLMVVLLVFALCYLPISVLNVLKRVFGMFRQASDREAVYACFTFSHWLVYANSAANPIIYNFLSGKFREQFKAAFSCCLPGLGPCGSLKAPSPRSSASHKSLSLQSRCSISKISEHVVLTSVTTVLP
T5 sequence (O43614 whole entry): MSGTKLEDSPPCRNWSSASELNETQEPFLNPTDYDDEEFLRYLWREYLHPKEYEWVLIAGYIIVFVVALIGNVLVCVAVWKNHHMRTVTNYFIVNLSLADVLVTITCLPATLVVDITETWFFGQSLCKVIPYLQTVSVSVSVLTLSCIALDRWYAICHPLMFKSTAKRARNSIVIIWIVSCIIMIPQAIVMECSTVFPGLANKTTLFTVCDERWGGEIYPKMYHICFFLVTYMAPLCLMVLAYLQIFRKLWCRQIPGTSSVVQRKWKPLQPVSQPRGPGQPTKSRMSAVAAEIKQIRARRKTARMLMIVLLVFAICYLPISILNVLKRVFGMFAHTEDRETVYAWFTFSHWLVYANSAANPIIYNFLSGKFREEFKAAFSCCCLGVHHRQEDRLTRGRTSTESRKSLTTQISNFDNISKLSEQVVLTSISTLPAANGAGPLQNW

Compound: COc1ccc(/C=C/c2n[nH]c(-c3ccccc3O)n2)cc1OC
- IC50 [1]: 12.7 µM (active)
- IC50 (CHO-K1): > 66.2 µM (inactive)
- IC50 [2]: 3.21 µM (active)
- IC50 [3]: 4.7 µM (active)
- IC50 [4]: > 49.8 µM (inactive)
- IC50 [5]: 2.51 µM (active)
- IC50 (Caspase-3): 58.8 µM (active)
- IC50 (Orexin receptor type 2 [6]): > 50 µM (inactive)
- IC50 [7]: 13.6 µM (active)
- IC50 (Orexin receptor type 2 [8]): > 88.8 µM (inactive)

Compound: CCC(Sc1nc2ccccc2c(=O)[nH]1)C(=O)NC1CCCCC1 (centres undefined)
- CC50 [9]: > 100 µM (active)

Compound: CN(CC(=O)Nc1ccc(F)c(F)c1F)C(=O)c1cc(-c2ccncc2)nc2ccccc12
- EC50 [10]: 14.6 µM (active)

Compound: CC(C)NC(=O)Nc1ccc2c(c1)C(=O)N([C@@H](C)CO)C[C@@H](C)[C@H](CN(C)S(=O)(=O)c1ccc(F)cc1)OCCCC[C@H](C)O2
- AC50 [11]: 0.765 µM (active)
- AC50 [12]: 0.71 µM (active)
